In brackets after ≈: the same amount, converted by molar mass.
The compounds below were run on Trichophyton mentagrophytes (assay: Antifungal activity against Trichophyton mentagrophytes 445 after 120 hrs by broth microdilution assay). Conditions: Trichophyton mentagrophytes, 445, 120 h.
Type: functional

**Q.** Which MIC does the source give for `Cc1ccc(CNC(=S)c2cc([N+](=O)[O-])ccc2O)cc1` here?
**A.** 62.5 µM (≈ 18.9 µg/mL)

**Q.** Which MIC does the source give for `Oc1cc(Cl)ccc1C(=S)NCc1ccc(Br)cc1` here?
**A.** 1.95 µM (≈ 0.696 µg/mL)

**Q.** Which MIC does the source give for `CC(C)(C)c1ccc(CNC(=S)c2ccccc2O)cc1` here?
**A.** 15.6 µM (≈ 4.68 µg/mL)

These compounds were tested on Pichia kudriavzevii (assay: Antifungal activity against Candida krusei E28 after 48 hrs by broth microdilution assay). Conditions: Pichia kudriavzevii, E28, 48 h.
Type: functional

**Q.** `Cc1ccc(CNC(=S)c2cc([N+](=O)[O-])ccc2O)cc1` was tested. Which MIC did it give?
**A.** > 500 µM

**Q.** How did the MIC turn out when `Oc1cc(Cl)ccc1C(=S)NCc1ccc(Br)cc1` was run?
**A.** 15.6 µM (≈ 5.57 µg/mL)

**Q.** With `CC(C)(C)c1ccc(CNC(=S)c2ccccc2O)cc1` as the compound, how does the MIC read?
**A.** > 500 µM

What follows are compounds tested on Lichtheimia corymbifera (assay: Antifungal activity against Absidia corymbifera 272 after 48 hrs by broth microdilution assay). Conditions: Lichtheimia corymbifera, 272, 48 h.
Type: functional

**Q.** For `Cc1ccc(CNC(=S)c2cc([N+](=O)[O-])ccc2O)cc1`, which MIC is on record?
**A.** 500 µM (≈ 151 µg/mL)

**Q.** Which MIC does the source give for `Oc1cc(Cl)ccc1C(=S)NCc1ccc(Br)cc1` here?
**A.** 1.95 µM (≈ 0.696 µg/mL)

**Q.** For `CC(C)(C)c1ccc(CNC(=S)c2ccccc2O)cc1`, which MIC is on record?
**A.** 62.5 µM (≈ 18.7 µg/mL)

These compounds were tested on Trichophyton mentagrophytes (assay: Antifungal activity against Trichophyton mentagrophytes 445 after 72 hrs by broth microdilution assay). Conditions: Trichophyton mentagrophytes, 445, 72 h.
Type: functional

**Q.** `Cc1ccc(CNC(=S)c2cc([N+](=O)[O-])ccc2O)cc1` was tested. Which MIC did it give?
**A.** 62.5 µM (≈ 18.9 µg/mL)

**Q.** Which MIC does the source give for `Oc1cc(Cl)ccc1C(=S)NCc1ccc(Br)cc1` here?
**A.** 0.98 µM (≈ 0.35 µg/mL)

**Q.** How did the MIC turn out when `CC(C)(C)c1ccc(CNC(=S)c2ccccc2O)cc1` was run?
**A.** 15.6 µM (≈ 4.68 µg/mL)

These compounds were tested on Candida albicans (assay: Antifungal activity against Candida albicans ATCC 44859 after 48 hrs by broth microdilution assay). Conditions: Candida albicans, ATCC 44859, 48 h.
Type: functional

**Q.** With `Cc1ccc(CNC(=S)c2cc([N+](=O)[O-])ccc2O)cc1` as the compound, how does the MIC read?
**A.** > 500 µM

**Q.** Which MIC does the source give for `Oc1cc(Cl)ccc1C(=S)NCc1ccc(Br)cc1` here?
**A.** 31.2 µM (≈ 11.1 µg/mL)

**Q.** For `CC(C)(C)c1ccc(CNC(=S)c2ccccc2O)cc1`, which MIC is on record?
**A.** > 500 µM

Each compound was assayed on Trichosporon asahii (assay: Antifungal activity against Trichosporon asahii 1188 after 24 hrs by broth microdilution assay). Conditions: Trichosporon asahii, 1188, 24 h.
Type: functional

**Q.** How did the MIC turn out when `Cc1ccc(CNC(=S)c2cc([N+](=O)[O-])ccc2O)cc1` was run?
**A.** 500 µM (≈ 151 µg/mL)

**Q.** For `Oc1cc(Cl)ccc1C(=S)NCc1ccc(Br)cc1`, which MIC is on record?
**A.** 7.81 µM (≈ 2.79 µg/mL)

**Q.** Which MIC does the source give for `CC(C)(C)c1ccc(CNC(=S)c2ccccc2O)cc1` here?
**A.** 250 µM (≈ 74.9 µg/mL)

The compounds below were run on Candida tropicalis (assay: Antifungal activity against Candida tropicalis 159 after 48 hrs by broth microdilution assay). Conditions: Candida tropicalis, 159, 48 h.
Type: functional

**Q.** `Cc1ccc(CNC(=S)c2cc([N+](=O)[O-])ccc2O)cc1` was tested. Which MIC did it give?
**A.** > 500 µM

**Q.** How did the MIC turn out when `Oc1cc(Cl)ccc1C(=S)NCc1ccc(Br)cc1` was run?
**A.** 31.2 µM (≈ 11.1 µg/mL)

**Q.** `CC(C)(C)c1ccc(CNC(=S)c2ccccc2O)cc1` was tested. Which MIC did it give?
**A.** > 500 µM

These compounds were tested on Lichtheimia corymbifera (assay: Antifungal activity against Absidia corymbifera 272 after 24 hrs by broth microdilution assay). Conditions: Lichtheimia corymbifera, 272, 24 h.
Type: functional

**Q.** For `Cc1ccc(CNC(=S)c2cc([N+](=O)[O-])ccc2O)cc1`, which MIC is on record?
**A.** 500 µM (≈ 151 µg/mL)

**Q.** Which MIC does the source give for `Oc1cc(Cl)ccc1C(=S)NCc1ccc(Br)cc1` here?
**A.** 0.98 µM (≈ 0.35 µg/mL)

**Q.** Which MIC does the source give for `CC(C)(C)c1ccc(CNC(=S)c2ccccc2O)cc1` here?
**A.** 15.6 µM (≈ 4.68 µg/mL)

Each compound was assayed on Aspergillus fumigatus (assay: Antifungal activity against Aspergillus fumigatus 231 after 48 hrs by broth microdilution assay). Conditions: Aspergillus fumigatus, 231, 48 h.
Type: functional

**Q.** How did the MIC turn out when `Cc1ccc(CNC(=S)c2cc([N+](=O)[O-])ccc2O)cc1` was run?
**A.** 500 µM (≈ 151 µg/mL)

**Q.** `Oc1cc(Cl)ccc1C(=S)NCc1ccc(Br)cc1` was tested. Which MIC did it give?
**A.** 7.81 µM (≈ 2.79 µg/mL)

**Q.** Which MIC does the source give for `CC(C)(C)c1ccc(CNC(=S)c2ccccc2O)cc1` here?
**A.** > 500 µM

Each compound was assayed on Pichia kudriavzevii (assay: Antifungal activity against Candida krusei E28 after 24 hrs by broth microdilution assay). Conditions: Pichia kudriavzevii, E28, 24 h.
Type: functional

**Q.** `Cc1ccc(CNC(=S)c2cc([N+](=O)[O-])ccc2O)cc1` was tested. Which MIC did it give?
**A.** > 500 µM

**Q.** How did the MIC turn out when `Oc1cc(Cl)ccc1C(=S)NCc1ccc(Br)cc1` was run?
**A.** 3.9 µM (≈ 1.39 µg/mL)

**Q.** For `CC(C)(C)c1ccc(CNC(=S)c2ccccc2O)cc1`, which MIC is on record?
**A.** > 500 µM

These compounds were tested on Candida albicans (assay: Antifungal activity against Candida albicans ATCC 44859 after 24 hrs by broth microdilution assay). Conditions: Candida albicans, ATCC 44859, 24 h.
Type: functional

**Q.** For `Cc1ccc(CNC(=S)c2cc([N+](=O)[O-])ccc2O)cc1`, which MIC is on record?
**A.** 500 µM (≈ 151 µg/mL)

**Q.** `Oc1cc(Cl)ccc1C(=S)NCc1ccc(Br)cc1` was tested. Which MIC did it give?
**A.** 15.6 µM (≈ 5.57 µg/mL)

**Q.** `CC(C)(C)c1ccc(CNC(=S)c2ccccc2O)cc1` was tested. Which MIC did it give?
**A.** > 500 µM

Each compound was assayed on Nakaseomyces glabratus (assay: Antifungal activity against Candida glabrata 20/I after 24 hrs by broth microdilution assay). Conditions: Nakaseomyces glabratus, 20/I, 24 h.
Type: functional

**Q.** Which MIC does the source give for `Cc1ccc(CNC(=S)c2cc([N+](=O)[O-])ccc2O)cc1` here?
**A.** > 500 µM

**Q.** With `Oc1cc(Cl)ccc1C(=S)NCc1ccc(Br)cc1` as the compound, how does the MIC read?
**A.** 31.2 µM (≈ 11.1 µg/mL)

**Q.** Which MIC does the source give for `CC(C)(C)c1ccc(CNC(=S)c2ccccc2O)cc1` here?
**A.** > 500 µM

What follows are compounds tested on Nakaseomyces glabratus (assay: Antifungal activity against Candida glabrata 20/I after 48 hrs by broth microdilution assay). Conditions: Nakaseomyces glabratus, 20/I, 48 h.
Type: functional

**Q.** For `Cc1ccc(CNC(=S)c2cc([N+](=O)[O-])ccc2O)cc1`, which MIC is on record?
**A.** > 500 µM

**Q.** Which MIC does the source give for `Oc1cc(Cl)ccc1C(=S)NCc1ccc(Br)cc1` here?
**A.** 31.2 µM (≈ 11.1 µg/mL)

**Q.** For `CC(C)(C)c1ccc(CNC(=S)c2ccccc2O)cc1`, which MIC is on record?
**A.** > 500 µM

The compounds below were run on Aspergillus fumigatus (assay: Antifungal activity against Aspergillus fumigatus 231 after 24 hrs by broth microdilution assay). Conditions: Aspergillus fumigatus, 231, 24 h.
Type: functional

**Q.** Which MIC does the source give for `Cc1ccc(CNC(=S)c2cc([N+](=O)[O-])ccc2O)cc1` here?
**A.** 500 µM (≈ 151 µg/mL)

**Q.** Which MIC does the source give for `Oc1cc(Cl)ccc1C(=S)NCc1ccc(Br)cc1` here?
**A.** 7.81 µM (≈ 2.79 µg/mL)

**Q.** For `CC(C)(C)c1ccc(CNC(=S)c2ccccc2O)cc1`, which MIC is on record?
**A.** 250 µM (≈ 74.9 µg/mL)

The compounds below were run on Trichosporon asahii (assay: Antifungal activity against Trichosporon asahii 1188 after 48 hrs by broth microdilution assay). Conditions: Trichosporon asahii, 1188, 48 h.
Type: functional

**Q.** `Cc1ccc(CNC(=S)c2cc([N+](=O)[O-])ccc2O)cc1` was tested. Which MIC did it give?
**A.** 500 µM (≈ 151 µg/mL)

**Q.** With `Oc1cc(Cl)ccc1C(=S)NCc1ccc(Br)cc1` as the compound, how does the MIC read?
**A.** 7.81 µM (≈ 2.79 µg/mL)

**Q.** Which MIC does the source give for `CC(C)(C)c1ccc(CNC(=S)c2ccccc2O)cc1` here?
**A.** 250 µM (≈ 74.9 µg/mL)

The compounds below were run on Candida tropicalis (assay: Antifungal activity against Candida tropicalis 159 after 24 hrs by broth microdilution assay). Conditions: Candida tropicalis, 159, 24 h.
Type: functional

**Q.** With `Cc1ccc(CNC(=S)c2cc([N+](=O)[O-])ccc2O)cc1` as the compound, how does the MIC read?
**A.** > 500 µM

**Q.** How did the MIC turn out when `Oc1cc(Cl)ccc1C(=S)NCc1ccc(Br)cc1` was run?
**A.** 31.2 µM (≈ 11.1 µg/mL)

**Q.** `CC(C)(C)c1ccc(CNC(=S)c2ccccc2O)cc1` was tested. Which MIC did it give?
**A.** > 500 µM
